One assay has as its target T1, mTOR (Mus musculus, UniProt P26883+Q9JLN9).
T1 construct: endogenous in cells; host or cells: naive OT-I CD8+ T cells (TCR transgenic Rag2-/- mice) stimulated with Ag+B7.1 +/- IL-12
In words: mTOR activity (mTOR, S6K and S6 phosphorylation by ICS) in stimulated OT-I cells. It is filed as cell-based. Here is the method: FIG. 1. […] (A and B) OT-I cells stimulated with BOK (Ag+B7.1) (±) IL-12 were evaluated for (A) IFN-γ by ICS and (B) cytolytic activity (primary, 72 hr poststimulation; secondary, 24 hr postsecondary stimulation); ***p<0.0002. (C-E) OT-I cells stimulated with antigen (Ag) (the antigen is a peptide consisting of Ser Ile Ile followed by Asn Phe Glu which are followed by Lys and Lue (OVAp), used at 10 nM) plus B7.1 (100 μg/ml)(Ag+B7.1)(±) IL-12 (2 ng/ml) were evaluated by ICS at the indicated time points for (C) phosphorylated mTOR, (D) phosphorylated S6K, and (E) phosphorylated ribosomal S6. For mTOR inhibition, rapamycin (20 ng/ml) was added 30 min prior to addition of antigen, cytokine Data are representative of at least three independent experiments with similar outcomes. (Data are presented as mean±SEM.)
Stimulation of OT-1 Cells. Naive OT-I cells were stimulated with latex microspheres expressing H-2K^b/ovalbumin antigen and B7.1 according to known techniques. Naive OT-II cells were stimulated with anti-CD3-/anti-CD28-coated latex beads. In some experiments, the cell line derived from embryonic fibroblasts, namely, BOK (MEC.B7.SigOVA: expressing H-2K^b, OVAp and B7.1, were used as antigen-presenting cells to stimulate naive OT-I cells according to known techniques.
Although the kinase mTOR has been implicated as an integrator of various extracellular signals and a sensor for internal energy levels for determination of cell fate, the role for mTOR in integrating instructions that program naive CD8^+ T cells for type I effector differentiation is unclear. First, we tested the ability of Ag and B7.1 (Ag+B7.1) in the presence or absence of IL-12 to activate mTOR in OT-I cells at various time points after stimulation. Stimulation of naive OT-I cells with Ag+B7.1 induced mTOR phosphorylation (activation) by 2 hr, which was maximal at 12 hr and barely detectable by 48 hr (FIG. 1C). Remarkably, IL-12 addition enhanced Ag+B7.1-induced mTOR phosphorylation at 2 hr, which was maintained at 48 hr after stimulation (FIG. 1C). […] To verify that the induction of mTOR phosphorylation also led to its kinase activity, we monitored the kinetics of p70 S6K phosphorylation (Ser 371), a direct target of mTOR kinase activity. Although both Ag+B7.1 and Ag+B7.1 plus IL-12 induced similar amounts of S6K phosphorylation at 12 hr (maximal), the presence of IL-12 was able to sustain the S6K phosphorylation up to 48 hr (FIG. 10), in correlation with mTOR phosphorylation (FIG. 1C). […] The Ag+B7.1±IL-12 stimulation-induced S6K and S6 phosphorylation in OT-I cells was blocked by rapamycin (specific inhibitor of mTOR complex-1) (FIGS. 1D and 1E), thus confirming the ability of instructions to activate mTOR and its kinase activity in OT-I cells. […]

For the next assay, the system named is Eomesodermin. In words: Eomesodermin mRNA and protein expression in OT-I cells. It is filed as cell-based, mouse. As for the experimental part:
FIG. 5. Inhibition of mTOR Promotes Persistent Eomes Expression and Phenotypic Markers of Memory in CD8+T Cells. (A and B) OT-I cells stimulated with Ag+B7.1 (±) IL-12 and rapamycin were evaluated for (A) mRNA for Eomes at the indicated time points by RT-PCR and (B) Eomes protein expression at 72 hr by ICS. *p<0.03. (C) OT-I cells stimulated with Ag+B7.1 (±) IL-12 and rapamycin were transduced with T-bet-ER retroviral vector (±) 4-HT (10 nM) and evaluated for Eomes protein expression at 96 hr. (D) OT-I cells stimulated with Ag+B7.1 (±) IL-12 and rapamycin were evaluated for CD62L, CD69, KLRG1, CD127, and CD122 expression at 72 hr. (E) Bcl-2 and Bcl-3 mRNA expression at the indicated time points. (F and G) OT-I cells stimulated with Ag+B7.1 (±) IL-12 and rapamycin for 72 hr were washed twice and rested for an additional 72 hr in the presence of (F) IL-7 (10 ng/ml), *p<0.02, and (G) IL-15 (10 ng/ml). *p<0.02 and percent (%) cell recovery was calculated at 144 hr. […]
The closely related transcription factors T-bet and Eomesodermin are inversely regulated in effector and memory CD8^+T cells. To determine whether mTOR inhibition, which curtailed T-bet expression, led to induction of Eomesodermin, we systematically analyzed Eomesodermin mRNA expression in OT-I cells. […] We also determined whether IFN-α could also regulate mTOR activity and T-bet expression in OT-I cells.

Where [1] appears, read: IFN-α, Ag+B7.1-stimulated OT-I cells.

The values that follow come from patent US20100196311A1, “METHODS AND COMPOSITIONS CONTAINING mTOR INHIBITORS FOR ENHANCING IMMUNE RESPONSES” (priority 2009, published 2010).

With IFN-α, the mTOR activity result at mTOR (setting [1]) was “unable to enhance”. In addition, the Eomesodermin expression result in the assay on Eomesodermin (setting [1]) is listed as “increases”.

B1: IL-12: interleukin-12, cytokine (signal 3) (protein, UniProt P43431 23-215; P43432 23-335, looked up)
Interleukin-12 subunit alpha: RVIPVSGPARCLSQSRNLLKTTDDMVKTAREKLKHYSCTAEDIDHEDITRDQTSTLKTCLPLELHKNESCLATRETSSTTRGSCLPPQKTSLMMTLCLGSIYEDLKMYQTEFQAINAALQNHNHQQIILDKGMLVAIDELMQSLNHNGETLRQKPPVGEADPYRVKMKLCILLHAFSTRVVTINRVMGYLSSA
Interleukin-12 subunit beta: MWELEKDVYVVEVDWTPDAPGETVNLTCDTPEEDDITWTSDQRHGVIGSGKTLTITVKEFLDAGQYTCHKGGETLSHSHLLLHKKENGIWSTEILKNFKNKTFLKCEAPNYSGRFTCSWLVQRNMDLKFNIKSSSSSPDSRAVTCGMASLSAEKVTLDQRDYEKYSVSCQEDVTCPTAEETLPIELALEARQQNKYENYSTSFFIRDIIKPDPPKNLQMKPLKNSQVEVSWEYPDSWSTPHSYFSLKFFVRIQRKKEKMKETEEGCNQKGAFLVEKTSTEVQCKGGNVCVQAQDRYYNSSCSKWACVPCRVRS
In the case of B1, in the assay with mTOR (IL-12 (2 ng/ml) added to Ag+B7.1 stimulation, 2-48 hr), the mTOR phosphorylation result was “enhances and sustains”. Besides, the Eomesodermin expression entry in the assay on Eomesodermin (IL-12 addition to Ag+B7.1 stimulation) is listed as “reduced”.
